Converted amounts (≈) assume the structure as drawn.
How the values were obtained:
[1] = test system: Ceratobasidium cornigerum; test: Antimicrobial activity against Ceratobasidium cornigerum assessed as microbial growth inhibition; assay type: functional
[2] = test system: Edwardsiella tarda; test: Antimicrobial activity against Edwardsiella tarda assessed as microbial growth inhibition; assay type: functional

Compound `C=C(C)[C@H]1[C@H](OC(C)=O)C[C@H](C)[C@@]12CC=C(C)[C@@H](OC(=O)CCCCCCC/C=C\C/C=C\CCCCC)C2` has an MIC [1] of 0.5 µg/mL (≈ 0.925 µM) and an MIC [2] of 0.25 µg/mL (≈ 0.462 µM).
